A short description of series [1]: Cytotoxicity against human RD cells assessed as reduction in cell viability after 12 hrs by CCK8 assay. Format: cell-based. Background: Tetrazolium assays rely on reduction of a dye to a coloured formazan, in cell work by metabolically active cells.
In another series the test system is Coxsackievirus A16. Description: Antiviral activity against Coxsackievirus A16 TA271 infected in human RD cells assessed as inhibition of virus-induced cytopathic effect preincubated with viral suspension for 2 hrs followed by cell addition and measured after 24 hrs by CCK-8 assay. The format is functional, cell-based. In general terms: Damage to the host cells serves as the signal in cytopathic effect assays.

A short description of series [2]: Selectivity index, ratio of CC50 for cytotoxicity against human RD cells to EC50 for antiviral activity against Coxsackievirus A16 TA271 infected in human RD cells. Format: toxicity, cell-based. The conditions noted are these: read-out: Ratio CC50/EC50.

By CC50 is commonly meant the concentration that lowers cell viability or growth by half. In general, EC50 refers to the concentration needed to bring the measured effect to its halfway point.

Turning to `NC(=O)c1ncn([C@@H]2O[C@H](CO)[C@@H](O)[C@H]2O)n1` [RIBAVIRIN], the CC50 at 12 h in series [1] turned out to be 1480 µM. Further, the Activity result in the series on Coxsackievirus A16 is “Dose-dependent effect”. Besides, the EC50 in the series with Coxsackievirus A16 (Enterovirus A) was 144 µM. Besides, in series [2], the selectivity ratio was found to be 10.3.

The record behind these values is ChEMBL document CHEMBL4334442, “Effects of Acetylshikonin on the Infection and Replication of Coxsackievirus A16 in Vitro and in Vivo” (J Nat Prod, 2019).
